Source: EP0158265A2, “Benzamide and anilide derivatives” (BEECHAM GROUP PLC, priority 1984, dated 1985)

Tested on: von Bezold-Jarisch reflex evoked by 5HT
Assay: Antagonism of the von Bezold-Jarisch reflex evoked by 5HT in the anaesthetised rat
Assay type: in vivo
Details: anaesthetised male rat; compound given intravenously; concentration reducing the 5HT-evoked heart rate response (5-HT usually 6µg/kg i.v.) to 50% of control
Procedure: Antagonism of the von Bezold-Jarisch reflex
The compounds were evaluated for antagonism of the von Bezold-Jarisch reflex evoked by 5HT in the anaesthetised rat according to the following method: • Male rats (Beecham Pharmaceuticals), 250-350g, were anaesthetised with urethane (1.25g/kg intraperitoneally) and blood pressure and heart rate recorded as described by Fozard J.R. et al., J. Cardiovasc. Pharmacol. 2, 229-245 (1980). A submaximal dose of 5-HT (usually 6µg/kg) was given repeatedly by the intravenous route and changes in heart rate quantified. Examples were given intravenously and the concentration required to reduce the 5HT-evoked response to 50% of the control response (ED50) was then determined.

Structure (SMILES)	ED50
CN1C2CCC1CC(NC(=O)c1cc(Cl)cc(Cl)c1)C2 (stereo not drawn) [(2), 3,5-dichloro-N-[3β-{8-methyl-8-azabicyclo(3.2.1)octyl}] benzamide]	0.3 mg/kg i.v.
CN1C2CCC1CC(NC(=O)c1cc(Cl)cc(Cl)c1)C2 (stereo not drawn) [(5), 3,5-Dichloro-N-[3α-{8-methyl-8-azabicyclo(3.2.1)octyl}] benzamide]	0.009 mg/kg i.v.
